The record followed here is patent US10130095B2, “Fungicidal compositions of pyrazolecarboxylic acid alkoxyamides” (BASF AGRO B.V., priority 2014, dated 2018).

Assay [1] concerns Septoria tritici. Description: in vivo preventive Septoria tritici test (wheat). The conditions noted are these: 15 ppm a.i., evaluated 21 days after inoculation. How it is done: Solvent: 49 parts by weight of N,N-dimethylacetamide Emulsifier: 1 part by weight of alkylaryl polyglycol ether To produce a suitable preparation of active compound, 1 part by weight of active compound or active compound combination is mixed with the stated amounts of solvent and emulsifier, and the concentrate is diluted with water to the desired concentration. To test for preventive activity, young plants are sprayed with the preparation of active compound or active compound combination at the stated rate of application. After the spray coating has been dried, the plants are sprayed with a spore suspension of Septoria tritici. The plants remain for 48 hours in an incubation cabinet at approximately 20° C. and a relative atmospheric humidity of approximately 100% and afterwards for 60 hours at approximately 15° C. in a translucent incubation cabinet at a relative atmospheric humidity of approximately 100%. The plants are placed in the greenhouse at a temperature of approximately 15° C. and a relative atmospheric humidity of approximately 80%. The test is evaluated 21 days after the inoculation. 0% means an efficacy which corresponds to that of the untreated control, while an efficacy of 100% means that no disease is observed.

Assay [2] has as its system Botrytis cinerea. Description: in vivo preventive test on Botrytis test (beans). The conditions noted are these: evaluated 2 days after inoculation. How it is done:
Solvent: 24.5 parts by weight of acetone • 24.5 parts by weight of dimethylacetamide Emulsifier: 1 part by weight of alkylaryl polyglycol ether To produce a suitable preparation of active compound, 1 part by weight of active compound is mixed with the stated amounts of solvent and emulsifier, and the concentrate is diluted with water to the desired concentration. To test for preventive activity, young plants are sprayed with the preparation of active compound. After the spray coating has dried on, 2 small pieces of agar covered with growth of Botrytis cinerea are placed on each leaf. The inoculated plants are placed in a darkened chamber at 20° C. and a relative at mospheric humidity of 100%. 2 days after the inoculation, the size of the lesions on the leaves is evaluated. 0% means an efficacy which corresponds to that of the untreated control, while an efficacy of 100% means that no disease is observed.

Assay [3] concerns Alternaria solani. The assay is described as follows: in vivo preventive test on Alternaria test (tomatoes). The note with it: evaluated 3 days after inoculation. As for the experimental part: (§1) Solvent: 24.5 parts by weight of acetone • 24.5 parts by weight of dimethylacetamide Emulsifier: 1 part by weight of alkylaryl polyglycol ether To produce a suitable preparation of active compound, 1 part by weight of active compound is mixed with the stated amounts of solvent and emulsifier, and the concentrate is diluted with water to the desired concentration. To test for preventive activity, young plants are sprayed with the preparation of active compound at the stated rate of application. After the spray coating has dried on, the plants are inoculated with an aqueous spore suspension of Alternaria solani. The plants are then placed in an incubation cabinet at approximately 20° C. and a relative atmospheric humidity of 100%. The test is evaluated 3 days after the inoculation. 0% means an efficacy which corresponds to that of the untreated control while an efficacy of 100% means that no disease is observed.

Assay [4] concerns Venturia inaequalis. The assay is described as follows: in vivo preventive test on Venturia test (apples). The conditions noted are these: evaluated 10 days after inoculation. How it is done: as §1, with “conidia” for “spore”, “the causal agent of apple scab (Venturia inaequalis) and” for “Alternaria solani. The plants are”, “remain for 1 day” for “placed”, “The plants are then placed in a greenhouse at approximately 21° C. and a relative atmospheric humidity of approximately 90%. The” for “The”, “10” for “3”, “control,” for “control”

Take `CC(O)(Cn1cncn1)c1ccc(Oc2ccc(Cl)cc2)cc1C(F)(F)F` (centres unmarked) [(B1-1), 2-[4-(4-Chlorophenoxy)-2-(trifluoromethyl)phenyl]-1-(1H-1,2,4-triazol-1-yl)propan-2-ol]: the “Efficacy in % found” value in assay [1] was 0%; in assay [2] (5 ppm a.i.) it was 20%.

For `CCC(O)(Cn1cncn1)c1ccc(Oc2ccc(Cl)cc2)cc1C(F)(F)F` (centres unmarked) [(B1-2), 2-[4-(4-chlorophenoxy)-2-(trifluoromethyl)phenyl]-1-(1H-1,2,4-triazol-1-yl)butan-2-ol], the “Efficacy in % found” value in assay [1] is on record as 13%; in assay [3] (1.25 ppm a.i.), 8%; in assay [3] (2.5 ppm a.i.), 30%; in assay [4] (1.25 ppm a.i.) it was 30%.

`CON(C(=O)c1cn(C)nc1C(F)F)C(C)Cc1c(Cl)cc(Cl)cc1Cl` (centres unmarked) [(I-1), 3-(difluoromethyl)-N-methoxy-1-methyl-N-[1-(2,4,6-trichlorophenyl)propan-2-yl]-1H-pyrazole-4-carboxamide]: the “Efficacy in % found” value is listed as 76% in assay [4] (0.125 ppm a.i.) and 8% in assay [2] (0.5 ppm a.i.).
